Measurements published in patent US20250051727A1, “CARDIAC ORGANOID WITH INNER PART HAVING CAVITIES AND MULTIPLE LAYERS” (MEDIZINISCHE HOCHSCHULE HANNOVER, priority 2018, published 2025).

System: cardiac organoids (from hESC3 NKX2.5-eGFP)
Format: cell-based, human
Procedure: The process was performed for steps a) to n) as described with reference to FIG. 1. Incubation under cell culture conditions was in a 5% CO2 atmosphere at 37° C., using ultra-low attachment 96 well microtiter plates, Nunclon Sphera 96U-well plate available from Thermo Fisher Scientific, as the first vessels. The PSC were the human embryonic stem cell line hESC3 NKX2.5-eGFP. These exemplary PSC were genetically manipulated to express enhanced green fluorescent protein (eGFP) as a reporter under the control of the early cardiomyocyte-specific marker NKX2.5 to indicate early cardiomyocyte differentiation.
These PSC were cultivated on cell culture flasks (preferably Geltrex-coated) in E8 medium and detached from the flasks to provide the PSC in suspension. In step a), 5000 PSC suspended in 100 μL of the first medium, which was E8 medium (DMEM/F12, L-ascorbic acid-2-phosphate magnesium (64 mg/L), sodium selenium (14 μg/L), FGF2 (100 μg/L), insulin (19.4 mg/L), NaHCO3 (543 mg/L) and transferrin (10.7 mg/L), TGFβ1 (2 μg/L) or NODAL (100 μg/L), osmolarity adjusted to 340 mOsm at pH7.4) supplemented with 10 μM ROCK inhibitor (Y-27632, catalogue No. 72302, Stemcell Technologies)), were carefully dispensed into wells of the microtiter plate. Centrifugation of step b) was twice for 3 min at 300× g with the centrifuge cooled to 4° C. The centrifuged first vessels each contained one agglomerate on the U-shaped bottom and were carefully placed into a cell culture incubator in order to avoid disturbance of the cells localized at the U-shaped bottom. Incubation of step c) without agitation was for 24 h, resulting in the formation of an aggregate of the cells. For embedding in Matrigel (thawed on ice, 9.7 to 10.1 mg/mL protein content) as the exemplary hydrogel, 20 μL Matrigel were positioned in each well of a microtiter plate, the wells of which forming second vessels, which plate was of the same ultra-low attachment quality as the first. […]

thickness of the myocardial ring compared to Controls (micrographs, FIG. 15): substantially thinner than in Controls
average diameter of the myocardial ring (human, 80 μg/mL): 165 μm
SMILES: O=C1CCC(N2C(=O)c3ccccc3C2=O)C(=O)N1 (stereo not drawn) [Thalidomide]
NKX2.5-eGFP-positive cells on the outer layer (micrographs, FIG. 15) (human, 80 μg/mL): absence of any NKX2.5-eGFP-positive cells on the outer layer
